Test results as given in ChEMBL document CHEMBL1201862, “PubChem BioAssay data set” (2004).
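How tested: cells in 96-well plates exposed to compound for 48 hours at five concentrations. GI50 is the concentration that inhibits growth by half.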 The source made the active and inactive calls. Rule as the data show it: active = GI50 up to about 1.1 µM and inactive = higher.

What was measured:
Assay in all cases: inhibition of tumour cell growth, NCI panel, 48 h
[1] = test system: A498
[2] = test system: ACHN
[3] = test system: BT-549
[4] = test system: CCRF-CEM
[5] = test system: HT-29
[6] = test system: M14
[7] = test system: MDA-MB-435
[8] = test system: NCI-H23
[9] = test system: NCI-H460
[10] = test system: NCI-H522
[11] = test system: OVCAR-5
[12] = test system: RXF 393
[13] = test system: SF-295
[14] = test system: SF-539
[15] = test system: SK-OV-3
[16] = test system: SN12C
[17] = test system: SNB-19
[18] = test system: SR
[19] = test system: T47D
[20] = test system: U-251

Measured: GI50

Cc1cc(O)nc2cc3oc4ccccc4c3cc12
inactive: [1] > 100 µM | [2] 24.2 µM | [3] > 100 µM | [4] 11.5 µM | [5] 44.8 µM | [6] > 100 µM | [7] > 88.1 µM | [8] > 68.5 µM | [9] 3.91 µM | [10] 34.1 µM | [11] > 83.2 µM | [12] > 100 µM | [13] > 100 µM | [14] 39.8 µM | [15] > 57.9 µM | [16] > 100 µM | [17] > 50.6 µM | [18] 5.96 µM | [19] > 100 µM | [20] 17.1 µM

Cc1ccc(/C=N/Nc2nncc3ccccc23)s1
inactive: [1] > 100 µM | [2] > 100 µM | [3] > 55.8 µM | [4] > 100 µM | [5] > 100 µM | [6] > 67.5 µM | [7] 97.1 µM | [8] > 83.8 µM | [9] > 100 µM | [10] 31.5 µM | [11] > 100 µM | [12] > 100 µM | [13] 35.9 µM | [14] 52.6 µM | [15] > 84.1 µM | [16] > 100 µM | [17] > 100 µM | [18] > 100 µM | [19] > 100 µM | [20] 53.2 µM

O=C1C(Cl)=C(N2CCN(c3ccccn3)CC2)C(=O)c2c(O)ccc(O)c21
active: [4] 0.37 µM | [18] 0.881 µM
inactive: [1] 4.25 µM | [2] 2.42 µM | [3] 1.9 µM | [5] 1.28 µM | [6] 1.46 µM | [7] 4.97 µM | [8] 1.18 µM | [9] 3.07 µM | [10] 1.74 µM | [11] 6.08 µM | [12] 1.74 µM | [13] 3.78 µM | [14] 1.79 µM | [15] 8.32 µM | [16] 1.88 µM | [17] 5.92 µM | [19] 1.3 µM | [20] 8.49 µM

CC(=O)OC(C)(C)/N=N/c1ccc(Br)cc1
active: [5] 0.975 µM | [6] 0.277 µM | [7] 1.08 µM | [9] 0.946 µM | [13] 0.153 µM | [14] 0.841 µM | [18] 0.475 µM | [19] 1.09 µM
inactive: [1] > 87.5 µM | [2] 1.33 µM | [3] 97.7 µM | [4] 10.2 µM | [8] 25.8 µM | [10] 9.4 µM | [11] 1.66 µM | [12] 20.6 µM | [15] > 33.9 µM | [16] 32.7 µM | [17] > 68.2 µM | [20] 25.1 µM

C[C@]12CC[C@H](O)CC1=CC[C@@H]1C2CC[C@]2(C)Nc3c(cnn3-c3ccc(F)cc3)CC12 (stereo not given in full)
inactive: [1] 2.17 µM | [2] 16 µM | [3] 14.4 µM | [4] 2.94 µM | [5] 5.94 µM | [6] > 100 µM | [7] 41.2 µM | [8] 26.5 µM | [9] 3.51 µM | [10] 48.1 µM | [11] > 100 µM | [12] 2.25 µM | [13] 2.43 µM | [14] 1.46 µM | [15] 15.7 µM | [16] 37.4 µM | [17] 19.3 µM | [18] > 100 µM | [19] > 42.7 µM | [20] 6.3 µM

CN(C)c1ccc(/C=c2/c3ccccc3n3nc4ccccc4c23)cc1
inactive: [1] 4.3 µM | [2] 38.6 µM | [3] 13.8 µM | [4] 7.98 µM | [5] 13.7 µM | [6] 21.7 µM | [7] 3.35 µM | [8] 95.7 µM | [9] 30.1 µM | [10] 5.71 µM | [11] > 100 µM | [12] 11.9 µM | [13] 13.2 µM | [14] 24.4 µM | [15] 13.1 µM | [16] 73.6 µM | [17] 76.9 µM | [18] 3.34 µM | [19] 6.47 µM | [20] 22.6 µM

Nc1cccc(C2CCCc3c2[nH]c2ccccc32)c1 (stereo not given)
inactive: [1] 15 µM | [2] 25 µM | [3] 18.4 µM | [4] 15.3 µM | [5] 14.6 µM | [6] 22.3 µM | [7] 17.3 µM | [8] 19.1 µM | [9] 19.5 µM | [10] 15.8 µM | [11] 16.3 µM | [12] 15.3 µM | [13] 20.8 µM | [14] 20.3 µM | [15] 23.9 µM | [16] 17 µM | [17] 12 µM | [18] 9.08 µM | [19] 12.1 µM | [20] 14.6 µM

[N-]=[N+]=Nc1ccc2c(c1)Sc1ccccc1N2CCCCN1CCN(C(=O)CCNC(=O)Cc2ccc(C(=O)c3ccccc3)cc2)CC1
inactive: [1] 10 µM | [2] 3.61 µM | [3] 5.06 µM | [4] 1.79 µM | [5] 1.98 µM | [6] 4.75 µM | [7] 2.2 µM | [8] 4.78 µM | [9] 3.72 µM | [10] 2.45 µM | [11] 6.53 µM | [12] 10.9 µM | [13] 3.78 µM | [14] 6.27 µM | [15] 27.9 µM | [16] 7.26 µM | [17] 8.17 µM | [18] 2.08 µM | [19] 5.36 µM | [20] 4.23 µM

CN1CCCOC(c2ccc(Cl)cc2)O1 (stereo not given)
inactive: [1] > 100 µM | [2] > 100 µM | [3] > 100 µM | [4] > 100 µM | [5] > 100 µM | [6] > 100 µM | [7] > 100 µM | [8] > 100 µM | [9] > 100 µM | [10] > 100 µM | [11] > 100 µM | [12] > 100 µM | [13] > 100 µM | [14] > 100 µM | [15] > 100 µM | [16] > 100 µM | [17] > 100 µM | [18] > 100 µM | [19] > 100 µM | [20] > 100 µM

CCN1/C(=C/c2ccc3ccccc3[n+]2CC)C=Cc2ccccc21
inactive: [1] 2.13 µM | [2] 2.33 µM | [3] 1.69 µM | [5] 1.14 µM | [11] 5.37 µM | [12] 2.12 µM | [14] 1.89 µM | [15] 2.18 µM
active: [4] 0.26 µM | [6] 0.851 µM | [7] 0.316 µM | [8] 0.551 µM | [9] 0.333 µM | [10] 0.266 µM | [13] 0.479 µM | [16] 0.649 µM | [17] 0.541 µM | [18] 0.164 µM | [19] 0.22 µM | [20] 0.131 µM
